This note sets out measurements from patent US20250197374A1, “WEE1 DEGRADING COMPOUNDS AND USES THEREOF” (BRISTOL-MYERS SQUIBB COMPANY, priority 2023, published 2025).

Bounds are passed on as bounds.

Format in all cases: cell-based
One experiment has as its system MKN45 cells. As to the kind of experiment: MKN45 cell proliferation assay (Cell-Titer-Glo, 120 hr). Conditions: for EC50: Homo sapiens, MKN-45, 120 h, read-out: MKN45 Cell Prolif. 120 hr EC50; for MKN45 Cell Prolif. 120 hr YMin (%): minimal percent of DMSO control observed. An excerpt: (§1) MKN45 cells were obtained from Celgene internal cell banks and cultured in RPMI complete media (RPMI-1640, 1× Penicillin/Streptomycin, 1× glutamine, 1× Sodium Pyruvate, Non-essential Amino Acids, 10% Fetal Bovine serum, all component from Thermo-Fisher). MDA-MB-231 cells were obtained from the ATCC (HTB-26) and cultured in RPMI-1640 and 10% Fetal Bovine serum; MDA-MB-231 cells were expanded and stored as aliquots in liquid nitrogen in Celgene internal cell banks. Compounds were dispensed into 384-well plates using an HP DE300 compound printer in triplicate with 8 compounds on each plate. Compounds were dispensed into 384-well black clear bottom plates (Corning #3764BC) using an EDC acoustic dispenser at BMS. For each compound, a 10-point dose response was printed at half-log dilutions starting at either 1 uM or 10 uM in triplicate for MKN45 cells and in duplicate for MDA-MB-231 cells. The DMSO concentration was kept constant for a final assay concentration of 0.1% per well assuming 50 ul final media volume. Compound plates were sealed and frozen at −20 C until use.
(§2) For each assay batch, compound plates were thawed and allowed to reach room temperature, and cells were seeded at 400 MKN45 cells per well, or 800 MDA-MB-231 cells per well, in 50 ul media listed above for each cell line. After 120 hours of incubation at 37 C and 5% CO2, cells were lysed by addition of 25 μL of Cell-Titer-Glo Reagent (Promega Corporation, Madison, WI), as per manufacturer's instructions, protected from light, shaken for 45 minutes, and total luminescence read by a Perkin Elmer Envision plate reader. Total luminescence signal is linearly correlated with cell number remaining in the well.
(§3) Luminescence data was processed per plate by subtracting reagent-only “blank” well luminescence from all measured values and calculating a percent of DMSO control value for each treatment well. Then, to determine the half-maximal effective concentration (EC50) values for cell growth inhibition, a four parameter logistic model was fit to the data for each DMSO-normalized compound: Sigmoidal Dose-Response Model: (FIT=(A+((B−A)/1+((C/x)^D)))) where C is the inflection point ([…]), D is the Hill slope, and A and B are the low and high limits of the fit respectively. The lower limit of the fit (value A) is referred to as Ymin-calculated. The minimal percent of DMSO control that is observed in the concentrations tested for each compound is labeled as “Ymin-obs”, and was recorded and reported in the tables. Sigmoidal fit curves were processed and evaluated using Activity Base (IDBS, Alameda, CA) or using Dotmatics (Boston, MA). N/A=not available at the present time.

The subject of the next experiment is MDA-MB-231 cells. As to the kind of experiment: MDA-MB-231 cell proliferation assay (Cell-Titer-Glo, 120 hr). Conditions: for EC50: Homo sapiens, MDA-MB-231, 120 h, read-out: MDA-MB 231 Cell Prolif. 120 hr EC50; for MDA-MB 231 Cell Prolif. 120 hr YMin (%): minimal percent of DMSO control observed.
Description: as §1, §2, §3

The target in the next experiment is T1, WEE1 (Homo sapiens, UniProt P30291+Q96SW2).
T1 construct: C-terminal ePL-tagged (DiscoverX, Fremont, CA) full-length WEE1 expression construct; expressed in transfected cells; host or cells: LentiX-HEK293T (Invitrogen), lentivirally transduced; the cells also over-express GSPT1-GN
Put plainly: WEE1-ePL degradation assay (293T-LentiX, InCELL Hunter luminescence, 4 hr). Conditions: for DC50: LentiX-HEK293T cells expressing WEE1-ePL, 4 hr incubation, read-out: 293T-LentiX WEE1-ePL Degradation 4 hr EC50; for 293T-LentiX WEE1-ePL Degradation 4 hr YMin (%): lower limit of fit, % of DMSO control signal remaining. An excerpt: To generate LentiX-WEE1-ePL-GSPT1-ND cells for the WEE1 degradation assay, LentiX-HEK293T (Invitrogen) were tranduced by lentivirus with a C-terminal ePL-tagged (DiscoverX, Fremont, CA) full-length WEE1 expression construct. A separate lentiviral construct was introduced to over-express a mutated form of GSPT1 (NP_002085), termed GSPT1-GN, which contains a G575N mutation and is further truncated in the first 158 amino acids. GSPT1-GN is functional but not degradable by Cereblon. Cells were selected and maintained in complete DMEM media (DMEM, 10% Heat Inactivated FBS, 400 μg/mL Geneticin, and 1 μg/mL puromycin at 37 C and 5% CO2). Cells were passaged every 3-4 days by reseeding 1×10^6 cells in a T150 flask.
Cells were dispensed into 384-well white plates (Corning #3570, NY) that were pre-spotted with compounds using an acoustic dispenser (Echo acoustic transfer system, Beckman Coulter Life Sciences, Carlsbad, CA) as a 10-point dose-response curve with a 3-fold dilution starting at either 1 uM or 10 uM and including a DMSO control. Twenty-five microliters of media containing 2500 cells for LentiX-oeWEE1-ePL was dispensed per well. Assay plates were incubated at 37° C. with 5% CO2 for four hours (WEE1) After incubation, 25 μL of the InCELL Hunter™ Detection Reagent Working Solution (DiscoverX, Fremont, CA) was added to each well and incubated at room temperature for 30 minutes protected from light. After 30 minutes, luminescence was read on a PHERAstar luminometer (Cary, NC).
To determine the half-maximal effective concentration (EC50) values for WEE1-ePL degradation, a four parameter logistic model was used: (Sigmoidal Dose-Response Model) (FIT=(A+((B−A)/1+((C/x)^D)))) where C is the inflection point (EC50), D is the Hill slope, and A and B are the low and high limits of the fit respectively). The lower limit of the fit (value A) is referred to as Ymin. […] The maximum limit constraint, Ymax, is similarly derived using DMSO control. The curves were processed and evaluated using Activity Base (IDBS, Alameda, CA) or using Dotmatics (Boston, MA).

T1 sequence (P30291 whole entry): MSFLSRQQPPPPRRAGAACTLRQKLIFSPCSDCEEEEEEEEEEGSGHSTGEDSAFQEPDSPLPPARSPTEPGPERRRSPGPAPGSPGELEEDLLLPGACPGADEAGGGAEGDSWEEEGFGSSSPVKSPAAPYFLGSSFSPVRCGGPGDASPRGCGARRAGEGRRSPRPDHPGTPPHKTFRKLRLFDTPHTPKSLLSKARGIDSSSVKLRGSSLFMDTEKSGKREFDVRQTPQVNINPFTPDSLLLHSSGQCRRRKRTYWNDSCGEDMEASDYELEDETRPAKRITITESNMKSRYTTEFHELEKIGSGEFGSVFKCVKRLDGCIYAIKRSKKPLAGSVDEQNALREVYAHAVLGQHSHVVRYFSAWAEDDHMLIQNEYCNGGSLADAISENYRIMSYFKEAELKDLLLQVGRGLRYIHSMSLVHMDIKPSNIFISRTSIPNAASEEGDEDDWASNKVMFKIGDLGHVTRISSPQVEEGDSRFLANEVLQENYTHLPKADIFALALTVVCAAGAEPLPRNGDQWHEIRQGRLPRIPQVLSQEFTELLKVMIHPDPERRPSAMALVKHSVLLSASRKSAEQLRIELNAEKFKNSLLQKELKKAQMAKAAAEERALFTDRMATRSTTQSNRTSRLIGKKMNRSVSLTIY
T1 sequence (Q96SW2 whole entry): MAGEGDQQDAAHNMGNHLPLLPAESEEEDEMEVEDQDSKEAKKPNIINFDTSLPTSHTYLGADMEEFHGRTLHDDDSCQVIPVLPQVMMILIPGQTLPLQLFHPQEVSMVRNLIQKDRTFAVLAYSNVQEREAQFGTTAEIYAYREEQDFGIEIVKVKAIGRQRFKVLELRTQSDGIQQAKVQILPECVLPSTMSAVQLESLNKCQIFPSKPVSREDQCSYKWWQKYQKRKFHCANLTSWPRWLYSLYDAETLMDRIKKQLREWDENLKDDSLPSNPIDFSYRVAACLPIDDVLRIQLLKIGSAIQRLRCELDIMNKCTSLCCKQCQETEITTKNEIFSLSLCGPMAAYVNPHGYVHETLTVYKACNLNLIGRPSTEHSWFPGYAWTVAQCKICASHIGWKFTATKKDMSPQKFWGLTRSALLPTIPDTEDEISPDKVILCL
T1 sequence (Q16531 whole entry partner): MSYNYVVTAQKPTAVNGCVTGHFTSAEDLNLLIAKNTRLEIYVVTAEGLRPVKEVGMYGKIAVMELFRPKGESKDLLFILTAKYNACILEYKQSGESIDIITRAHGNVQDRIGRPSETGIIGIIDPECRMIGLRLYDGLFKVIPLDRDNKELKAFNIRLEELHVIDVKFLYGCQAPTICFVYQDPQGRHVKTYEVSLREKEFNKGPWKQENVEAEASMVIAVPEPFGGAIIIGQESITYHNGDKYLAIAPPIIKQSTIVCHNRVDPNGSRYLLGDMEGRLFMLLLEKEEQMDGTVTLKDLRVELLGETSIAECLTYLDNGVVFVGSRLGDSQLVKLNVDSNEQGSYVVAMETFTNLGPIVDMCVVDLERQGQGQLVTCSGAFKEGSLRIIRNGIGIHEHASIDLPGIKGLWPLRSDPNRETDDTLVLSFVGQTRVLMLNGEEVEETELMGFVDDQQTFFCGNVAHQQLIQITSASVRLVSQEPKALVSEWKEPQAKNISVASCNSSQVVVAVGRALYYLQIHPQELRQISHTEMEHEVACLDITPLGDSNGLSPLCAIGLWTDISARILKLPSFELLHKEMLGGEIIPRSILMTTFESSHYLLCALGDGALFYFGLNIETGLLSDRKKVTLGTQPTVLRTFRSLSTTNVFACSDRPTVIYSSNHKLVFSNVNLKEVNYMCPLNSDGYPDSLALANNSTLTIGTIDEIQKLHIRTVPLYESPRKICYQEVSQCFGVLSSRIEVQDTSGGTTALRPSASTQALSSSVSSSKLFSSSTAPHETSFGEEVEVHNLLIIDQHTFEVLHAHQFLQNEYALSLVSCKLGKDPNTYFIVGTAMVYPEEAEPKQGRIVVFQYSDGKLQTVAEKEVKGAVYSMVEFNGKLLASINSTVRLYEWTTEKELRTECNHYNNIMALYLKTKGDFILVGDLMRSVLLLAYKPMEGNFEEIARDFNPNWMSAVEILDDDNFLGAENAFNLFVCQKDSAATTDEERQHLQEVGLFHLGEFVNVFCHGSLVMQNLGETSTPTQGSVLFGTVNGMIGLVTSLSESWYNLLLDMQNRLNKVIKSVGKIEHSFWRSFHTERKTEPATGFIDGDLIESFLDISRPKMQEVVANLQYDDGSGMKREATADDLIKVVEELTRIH

A word on the EC50: it is the midpoint of the concentration-response curve. Turning to `COC(C)(C)[C@@H]1CN(Cc2ccc3nc(C4CCOCC4)ccc3c2)C[C@H]1Oc1ccc2c(c1)CN([C@H]1CCC(=O)NC1=O)C2=O` (racemic) [Example 138, (3S)-3-(5-((4-(2-methoxypropan-2-yl)-1-((2-(tetrahydro-2H-pyran-4-yl)quinolin-6-yl)methyl)pyrrolidin-3-yl)oxy)-1-oxoisoindolin-2-yl)piperidine-2,6-dione], in the experiment on MKN45 cells, the EC50 came to 348 nM and the “MKN45 Cell Prolif. 120 hr YMin (%)” value is on record as 80.2%. In the experiment with MDA-MB-231 cells, the EC50 was no less than 10300 nM and the “MDA-MB 231 Cell Prolif. 120 hr YMin (%)” value came to 94.6%. At WEE1, the DC50 amounted to 3 nM and the “293T-LentiX WEE1-ePL Degradation 4 hr YMin (%)” value was determined as 48.1%.
As for `CN1CC[C@]2(C[C@H](c3ccc4cc(CN5CC[C@H](Oc6ccc7c(c6)CN([C@H]6CCC(=O)NC6=O)C7=O)C5)ccc4n3)CO2)C1` (relative stereo) [Example 3, rel-(3S)-3-(5-(((3S)-1-((2-(7-methyl-1-oxa-7-azaspiro[4.4]nonan-3-yl)quinolin-6-yl)methyl)pyrrolidin-3-yl)oxy)-1-oxoisoindolin-2-yl)piperidine-2,6-dione], in the experiment with MKN45 cells, the EC50 turned out to be 19 nM and the “MKN45 Cell Prolif. 120 hr YMin (%)” value stood at 13.0%. Further, in the experiment on MDA-MB-231 cells, the EC50 came out at 129 nM and the “MDA-MB 231 Cell Prolif. 120 hr YMin (%)” value is reported as 61.3%. Further, at WEE1, the DC50 is 10 nM and the “293T-LentiX WEE1-ePL Degradation 4 hr YMin (%)” value was found to be 28.1%.
Take `O=C1CC[C@H](N2Cc3cc(O[C@H]4CCN(Cc5ccc6nc([C@@H]7CCO[C@@]8(CCOC8)C7)ccc6c5)C4)ccc3C2=O)C(=O)N1` (relative stereo) [Example 20, rel-(3S)-3-(5-(((3S)-1-((2-(2,6-dioxaspiro[4.5]decan-9-yl)quinolin-6-yl)methyl)pyrrolidin-3-yl)oxy)-1-oxoisoindolin-2-yl)piperidine-2,6-dione]: in the experiment with MKN45 cells, the EC50 is 5 nM and the “MKN45 Cell Prolif. 120 hr YMin (%)” value is 11.6%. Besides, in the experiment with MDA-MB-231 cells, the EC50 is 101 nM and the “MDA-MB 231 Cell Prolif. 120 hr YMin (%)” value worked out at 60.2%. For the same molecule, on WEE1, the DC50 worked out at 1 nM and the “293T-LentiX WEE1-ePL Degradation 4 hr YMin (%)” value is 30.3%.
As for `O=C1CC[C@H](N2Cc3cc(O[C@H]4CCN(Cc5ccc6nc([C@@H]7CCO[C@]8(CCOC8)C7)ccc6c5)C4)ccc3C2=O)C(=O)N1` (relative stereo) [Example 21, rel-(3S)-3-(5-(((3S)-1-((2-(2,6-dioxaspiro[4.5]decan-9-yl)quinolin-6-yl)methyl)pyrrolidin-3-yl)oxy)-1-oxoisoindolin-2-yl)piperidine-2,6-dione], in the experiment with MKN45 cells, the half-maximal effective concentration (EC50) amounted to 2 nM and the “MKN45 Cell Prolif. 120 hr YMin (%)” value stood at 9.9%. In the experiment with MDA-MB-231 cells, the concentration for a half-maximal effect (EC50) came out at 129 nM and the “MDA-MB 231 Cell Prolif. 120 hr YMin (%)” value is 41.9%. At WEE1, the DC50 worked out at 1 nM and the “293T-LentiX WEE1-ePL Degradation 4 hr YMin (%)” value was 29.8%.
As for `O=C1CC[C@H](N2Cc3cc(O[C@H]4CCN(Cc5ccc6nc([C@H]7CCO[C@@]8(CCOC8)C7)ccc6c5)C4)ccc3C2=O)C(=O)N1` (relative stereo) [Example 22, rel-(3S)-3-(5-(((3S)-1-((2-(2,6-dioxaspiro[4.5]decan-9-yl)quinolin-6-yl)methyl)pyrrolidin-3-yl)oxy)-1-oxoisoindolin-2-yl)piperidine-2,6-dione], in the experiment with MKN45 cells, the 50% effective concentration (EC50) came to 2 nM and the “MKN45 Cell Prolif. 120 hr YMin (%)” value is 10.8%. In the experiment on MDA-MB-231 cells, the EC50 was 39 nM and the “MDA-MB 231 Cell Prolif. 120 hr YMin (%)” value is recorded as 42.5%. In addition, on WEE1, the DC50 stood at 1 nM and the “293T-LentiX WEE1-ePL Degradation 4 hr YMin (%)” value amounted to 31.3%.
Consider `O=C1CC[C@H](N2Cc3cc(O[C@H]4CCN(Cc5ccc6nc([C@H]7CCO[C@]8(CCOC8)C7)ccc6c5)C4)ccc3C2=O)C(=O)N1` (relative stereo) [Example 23, rel-(3S)-3-(5-(((3S)-1-((2-(2,6-dioxaspiro[4.5]decan-9-yl)quinolin-6-yl)methyl)pyrrolidin-3-yl)oxy)-1-oxoisoindolin-2-yl)piperidine-2,6-dione], for which, in the experiment on MKN45 cells, the EC50 is 6 nM and the “MKN45 Cell Prolif. 120 hr YMin (%)” value is listed as 11.8%. Besides, in the experiment with MDA-MB-231 cells, the EC50 was found to be 82 nM and the “MDA-MB 231 Cell Prolif. 120 hr YMin (%)” value is 56.9%. At WEE1, the DC50 stood at 2 nM and the “293T-LentiX WEE1-ePL Degradation 4 hr YMin (%)” value is listed as 33.5%.
Turning to `COC[C@@H]1CN(Cc2cc(F)c3nc(C4CCC(O)CC4)ncc3c2)C[C@H]1Oc1ccc2c(c1)CN([C@H]1CCC(=O)NC1=O)C2=O` (relative stereo) [Example 50, rel-(S)-3-(5-(((3S,4S)-1-((8-fluoro-2-(4-hydroxycyclohexyl)quinazolin-6-yl)methyl)-4-(methoxymethyl)pyrrolidin-3-yl)oxy)-1-oxoisoindolin-2-yl)piperidine-2,6-dione], in the experiment on MKN45 cells, the EC50 worked out at 7 nM and the “MKN45 Cell Prolif. 120 hr YMin (%)” value is listed as 8.7%. Also, in the experiment on MDA-MB-231 cells, the EC50 turned out to be 17 nM and the “MDA-MB 231 Cell Prolif. 120 hr YMin (%)” value was 19.3%. On WEE1, the DC50 came to 3 nM and the “293T-LentiX WEE1-ePL Degradation 4 hr YMin (%)” value amounted to 19.8%.
Regarding `COC[C@@H]1CN(Cc2cc3ccc(C4CCC(O)CC4)cc3cn2)C[C@H]1Oc1ccc2c(c1)CN([C@H]1CCC(=O)NC1=O)C2=O` (relative stereo) [Example 51, rel-(S)-3-(5-(((3S,4S)-1-((7-(4-hydroxycyclohexyl)isoquinolin-3-yl)methyl)-4-(methoxymethyl)pyrrolidin-3-yl)oxy)-1-oxoisoindolin-2-yl)piperidine-2,6-dione], in the experiment on MKN45 cells, the concentration giving a half-maximal response (EC50) was 1 nM and the “MKN45 Cell Prolif. 120 hr YMin (%)” value turned out to be 9.9%. In the experiment with MDA-MB-231 cells, the half-maximal effective concentration (EC50) stood at 15 nM and the “MDA-MB 231 Cell Prolif. 120 hr YMin (%)” value stood at 24.8%. At WEE1, the DC50 worked out at 1 nM and the “293T-LentiX WEE1-ePL Degradation 4 hr YMin (%)” value stood at 29.0%.
For the molecule `COC[C@@H]1CN(Cc2cc(F)c3nc(C4CC(C)OC(C)C4)ccc3c2)C[C@H]1Oc1ccc2c(c1)CN([C@H]1CCC(=O)NC1=O)C2=O` (relative stereo) [Example 52, re1-(3S)-3-(5-{[(3S,4S)-1-{[2-(2,6-dimethyloxan-4-yl)-8-fluoroquinolin-6-yl]methyl}-4-(methoxymethyl)pyrrolidin-3-yl]oxy}-1-oxo-2,3-dihydro-1H-isoindol-2-yl)piperidine-2,6-dione], in the experiment on MKN45 cells, the EC50 stood at 1 nM and the “MKN45 Cell Prolif. 120 hr YMin (%)” value is 8.3%. Further, in the experiment on MDA-MB-231 cells, the EC50 amounted to 12 nM and the “MDA-MB 231 Cell Prolif. 120 hr YMin (%)” value was 16.7%. At WEE1, the DC50 was found to be 1 nM and the “293T-LentiX WEE1-ePL Degradation 4 hr YMin (%)” value is 27.2%.
